These molecules were tested on Wnt pathway (assay: Wnt pathway Super-top flash (STF) reporter gene assay (primary assay)). Details: HEK293 STF cells co-cultured 1:1 with L Wnt3A cells; 48 h incubation; inhibition of luminescence signaling.
Assay type: cell-based
Protocol: The primary assay is based on Wnt pathway Super-top flash (STF) reporter gene assay:
HEK293 STF stable clones (HEK293 cells stably transfected with “Super-Top Flash” TCF-luciferase reporter plasmid) were kept in complete culture medium (DMEM with 4 mM L-Gln, 1.5 g/L sodium bicarbonate and 4.5 g/L glucose containing 6 μg/mL Blasticidin and 10% FBS). L Wnt3A cells (CRL-2647, ATCC) were kept in DMEM (Gibico) containing 10% FBS (Hyclone). HEK293 STF and L Wnt3A cells were harvested when 90% confluence and cell suspension was mixed with a fixed ratio of 1:1 (HEK293 STF: L Wnt3A). 100 μL/well of mixed cells suspension was added to the 96-well-plate with final cell concentration of 12,000 cells/well and then cultured for an additional 24 hours before adding compounds.
Compounds were diluted in DMSO in sequence and then diluted with DMEM medium. 20 μL medium containing compound was added to the cells according to the pre-setting dose. Cell plates were incubated at 37° C. for an additional 48 hours.
50 μL luciferase solution (Bright-Glo, Promega) was added to each well […] the 48 h incubation. The plates were incubated at room temperature for 5 min under gentle shaking. Luminescence signaling was measured with a plate reader (PHERAstar FS, BMG). The IC50 (potency) of compounds was calculated based on the inhibition of luminescence signaling.

SMILES | IC50 [nM]
Cc1cc(-c2ccc(CNc3ncnc(-c4ccc5nn(C)cc5c4)c3F)cc2)ccn1 [Compound A-14] | 5.9
N#Cc1cnc2cc(CNc3ncnc(N4CCc5ncccc5C4)c3F)ccc2c1 [Compound A-72] | 0.64
Cc1cc(-c2ccc(CNc3ncnc(-c4ccc5cnccc5c4)c3F)cc2)ccn1 [Compound A-6] | 4.7
Fc1c(NCc2ccc(-n3ccnc3)cc2)ncnc1-c1ccc2ccccc2c1 [Compound A-40] | > 1000
Cc1cc(-c2ccc(CNc3ncnc(N4CCc5ccc(F)cc5C4)c3F)cc2)ccn1 [Compound A-23] | 15
Cc1cc(-c2ncc(CNc3ncnc(-c4ccc5ccccc5c4)c3F)cc2C)ccn1 [Compound A-33] | 1.4
Cc1cc(-c2ccc(CNc3ncnc(-c4ccc(Cl)cc4)c3F)cc2)ccn1 [Compound A-20] | 211
Cc1cc(-c2ccc(CNc3ncnc(-c4ccc5ccccc5c4)c3F)nc2)ccn1 [Compound A-37] | 2.4
Cc1cc(-c2ccc(CNc3ncnc(N4CCc5ncsc5C4)c3F)cc2)ccn1 [Compound A-47] | 0.94
NC(=O)c1ccc2cc(CNc3ncnc(-c4ccc5ncccc5c4)c3F)ccc2c1 [Compound A-43, 6-((5-fluoro-6-(quinolin-6-yl)pyrimidin-4-ylamino)methyl)-2-naphthamide] | 75
Cc1cc(-c2cnc(CNc3ncnc(-c4ccc5ncccc5c4)c3F)cn2)ccn1 [Compound A-63] | 2
N#Cc1ccc2cc(CNc3ncnc(N4CCc5ncccc5C4)c3F)ccc2c1 [Compound A-44] | 1
N#Cc1ccc2cc(CNc3ncnc(-c4ccc5ncccc5c4)c3F)cnc2c1 [Compound A-75] | 0.52
Cc1cc(-c2ncc(CNc3ncnc(-c4ccc5ncsc5c4)c3F)cc2C)ccn1 [Compound A-51] | 1
Cc1cc(-c2ccc(CNc3ncnc(-c4ccc5ncncc5c4)c3F)cc2)ccn1 [Compound A-9] | 2.8
Cc1cc(-c2ccc(CNc3ncnc(N4CCc5ncccc5C4)c3F)cc2)ccn1 [Compound A-26] | 1.5
Cc1cc(-c2ccc(CNc3ncnc(N4CCc5ccccc5C4)c3F)cc2)ccn1 [Compound A-22] | 14
N#Cc1ccc2cc(CNc3ncnc(N4CCc5ncccc5C4)c3F)cnc2c1 [Compound A-76] | 1.3
Cc1cc(-c2ccc(CNc3ncnc(-c4ccc5ccccc5c4)c3F)cc2)ccn1 [Compound A-1, 5-fluoro-N-(4-(2-methylpyridin-4-yl)benzyl)-6-(naphthalen-2-yl)pyrimidin-4-amine] | 1.4
Fc1c(NCc2ccc(-c3ccnnc3)cc2)ncnc1-c1ccc2ncccc2c1 [Compound A-67] | 10
Cc1cc(-c2ccc(CNc3ncnc(-c4ccc5nccnc5c4)c3F)cc2)ccn1 [Compound A-8] | 1.5
Cc1cc(-c2ccc(CNc3ncnc(-c4ccc5nncn5c4)c3F)cc2)ccn1 [Compound A-55] | 3000
Cc1cc(-c2ccc(CNc3ncnc(N4CCc5ccccc5C4C)c3F)cc2)ccn1 (stereo not shown) [Compound A-70] | 147
Cc1cc(-c2ccc(CNc3ncnc(-c4ccc5ncccc5c4)c3F)cn2)ccn1 [Compound A-31] | 1

Further lines, results first:

IC50 [nM] | SMILES
120 | Cc1cc(-c2ccc(CNc3ncnc(-c4ccc5ccccc5c4)n3)cc2)ccn1 [Compound A-167]
318 | N#Cc1cnc2cc(CNc3nccc(-c4ccc5ncccc5c4)c3F)ccc2c1 [Compound A-118]
10 | Cc1cc(-c2ccc(CNc3cc(-c4ccc5cnccc5c4)ncn3)cc2)ccn1 [Compound A-148]
10 | N#Cc1ccc2nc(CNc3nccc(-c4ccc5ncccc5c4)c3F)ccc2c1 [Compound A-109]
106 | c1cnc2ccc(-c3ccnc(NCc4ccc(-n5ccnc5)cc4)n3)cc2c1 [Compound A-173]
0.12 | Cc1cc(-c2ncc(CNc3nccc(-c4ccc5ncnn5c4)c3F)cc2F)ccn1 [Compound A-123]
229 | Cc1cc(-c2ccc(CNc3nccc(N4CCc5ccccc5C4)n3)cc2)ccn1 [Compound A-155]
3.6 | Cc1cc(-c2ccc(CNc3cc(-c4ccc5ncccc5c4)ccn3)cc2)ccn1 [Compound A-166]
712 | CNc1ncc2c(n1)CCN(c1cc(NCc3ccc(-c4ccnc(C)c4)cc3)ncn1)C2=O [Compound A-138, 2-(methylamino)-6-(6-(4-(2-methylpyridin-4-yl)benzylamino)pyrimidin-4-yl)-7,8-dihydropyrido[4,3-d]pyrimidin-5(6H)-one]
10 | N#Cc1ccc2cc(CNc3nccc(-c4ccc5ncccc5c4)c3F)cnc2c1 [Compound A-119]
1 | Cc1cc(-c2ncc(CNc3nccc(-c4cncc(C#N)c4)c3F)cc2C#N)ccn1 [Compound A-131]
0.34 | Cc1cc(-c2ccnc(NCc3cnc(-c4ccnc(C)c4)c(C#N)c3)c2F)ccn1 [Compound A-127]
0.31 | Cc1cc(-c2ncc(CNc3nsc(-c4cc5cccnc5cn4)n3)cc2C#N)ccn1 [Compound A-197]
3000 | Cc1cc(-c2ccc(CNc3ccnc(-c4ccc5ccccc5c4)c3)cc2)ccn1 [Compound A-164]
0.2 | Cc1cc(-c2ncc(CNc3nccc(-c4ccn5nccc5n4)c3F)cc2C#N)ccn1 [Compound A-96]
0.11 | Cc1cc(-c2ncc(CNc3nccc(-c4cncc(Cl)c4)c3F)cc2C#N)ccn1 [Compound A-130]

IC50 [nM] | SMILES
416 | Cc1cc(-c2ncc(CNc3ncnc(N4CCS(=O)(=O)CC4)c3F)cc2F)ccn1 [Compound A-79]
3000 | Cc1cc(-c2ccc(CNc3cc(-c4ccc5ccccc5c4)nc(N)n3)cc2)ccn1 [Compound A-153]
16 | Cn1nccc1-c1ccc(CNc2nccc(-c3ccc4ncccc4c3)c2F)cc1 [Compound A-113]
0.07 | COc1cc(CNc2nsc(-c3ccc4ncccc4c3)n2)cnc1-c1ccnc(C)c1 [Compound A-193]
3000 | Cn1nc(CNc2ncnc(-c3ccc4ncccc4c3)c2F)ccc1=O [Compound A-83]
3000 | CS(=O)(=O)CCNc1ccc(CNc2nsc(-c3ccc4ncccc4c3)n2)cn1 [Compound A-189]
1130 | Cc1cc(-c2ccc(CNc3cc(N4CCc5ccccc5C4=O)ncn3)cc2)ccn1 [Compound A-145]
0.27 | Cc1cc(-c2ccc(CNc3nsc(-c4ccc5ncccc5c4)n3)cc2)ccn1 [Compound A-186]
0.8 | Cc1cc(-c2ncc(CNc3ncnc(N4CCn5nccc5C4)c3F)cc2C#N)ccn1 [Compound A-201]
0.4 | COc1cncc(-c2ccnc(NCc3cnc(-c4ccnc(C)c4)c(C#N)c3)c2F)c1 [Compound A-129]
18 | Cc1cc(-c2ncc(CNc3nccc(-c4ccc5ncccc5n4)c3O)cc2F)ccn1 [Compound A-176, 2-((3-fluoro-2′-methyl-2,4′-bipyridin-5-yl)methylamino)-4-(1,5-naphthyridin-2-yl)pyridin-3-ol]
1.7 | Cc1cc(-c2ncc(CNc3nccc(-c4ccc5ncccc5c4)n3)cn2)ccn1 [Compound A-172]
2.7 | Cc1cc(-c2cnc(CNc3nccc(-c4ccc5ncccc5c4)n3)cn2)ccn1 [Compound A-174]
3000 | Cc1cc(-c2ccc(CNc3cc(-c4ccc5ccccc5c4)nc(C)n3)cc2)ccn1 [Compound A-139]
1 | Cc1cc(-c2ncc(CNc3nccc(-c4ccc5ncccc5n4)c3F)cc2F)ccn1 [Compound A-108]

Reference: US10450300B2, “Wnt signaling pathway inhibitors and therapeutic applications thereof” (Suzhou Yunxuan Yiyao Keji Youxian Gongsi, priority 2015, dated 2019)
